Results taken from ChEMBL document CHEMBL1681767, “Design and synthesis of tricyclic tetrahydroquinolines as a new series of nonsteroidal selective androgen receptor modulators (SARMs)” (Bioorg Med Chem Lett, 2011).
Active and inactive are the calls of the source. The rule behind the calls is not given here.

Assays:
Progesterone receptor = biological target: T1, Progesterone receptor (Oryctolagus cuniculus, UniProt P06186); assay: Displacement of [3H]progesterone from rabbit PR by liquid scintillation counting
T1 sequence (P06186 whole entry): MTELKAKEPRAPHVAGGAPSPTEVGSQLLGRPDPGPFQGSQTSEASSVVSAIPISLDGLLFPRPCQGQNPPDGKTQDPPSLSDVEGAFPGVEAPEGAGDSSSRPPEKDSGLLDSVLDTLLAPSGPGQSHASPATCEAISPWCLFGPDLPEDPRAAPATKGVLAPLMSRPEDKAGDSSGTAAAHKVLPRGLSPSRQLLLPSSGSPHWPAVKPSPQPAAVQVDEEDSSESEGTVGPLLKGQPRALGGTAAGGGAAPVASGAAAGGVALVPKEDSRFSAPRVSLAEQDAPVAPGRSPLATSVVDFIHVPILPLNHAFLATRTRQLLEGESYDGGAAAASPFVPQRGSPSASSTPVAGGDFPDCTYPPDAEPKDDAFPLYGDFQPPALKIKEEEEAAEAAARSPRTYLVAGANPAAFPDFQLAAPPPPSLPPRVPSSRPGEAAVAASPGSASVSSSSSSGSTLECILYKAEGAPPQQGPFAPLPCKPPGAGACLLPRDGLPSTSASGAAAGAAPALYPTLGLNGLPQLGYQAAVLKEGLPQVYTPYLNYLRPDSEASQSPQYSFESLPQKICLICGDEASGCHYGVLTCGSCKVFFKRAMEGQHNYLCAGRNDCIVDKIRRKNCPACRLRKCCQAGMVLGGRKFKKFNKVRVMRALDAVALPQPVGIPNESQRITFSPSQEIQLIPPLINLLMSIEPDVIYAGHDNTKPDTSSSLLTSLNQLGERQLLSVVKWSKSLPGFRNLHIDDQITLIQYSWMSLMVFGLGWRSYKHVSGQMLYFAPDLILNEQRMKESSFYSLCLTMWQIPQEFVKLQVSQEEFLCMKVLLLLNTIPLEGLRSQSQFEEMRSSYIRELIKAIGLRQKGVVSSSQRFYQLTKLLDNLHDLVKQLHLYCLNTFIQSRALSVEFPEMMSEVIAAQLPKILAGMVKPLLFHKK

Rattus norvegicus [1] = assay: Recovery of levator ani muscle weight in orchidectomized Sprague-Dawley rat at 3 mg/kg, sc; type: functional, organism-based; parameters: dose 3 mg/kg
Glucocorticoid receptor = biological target: T2, Glucocorticoid receptor (Rattus norvegicus, UniProt P06536); assay: Displacement of [3H]dexamethasone from Sprague-Dawley rat GR by liquid scintillation counting
T2 sequence (P06536 whole entry): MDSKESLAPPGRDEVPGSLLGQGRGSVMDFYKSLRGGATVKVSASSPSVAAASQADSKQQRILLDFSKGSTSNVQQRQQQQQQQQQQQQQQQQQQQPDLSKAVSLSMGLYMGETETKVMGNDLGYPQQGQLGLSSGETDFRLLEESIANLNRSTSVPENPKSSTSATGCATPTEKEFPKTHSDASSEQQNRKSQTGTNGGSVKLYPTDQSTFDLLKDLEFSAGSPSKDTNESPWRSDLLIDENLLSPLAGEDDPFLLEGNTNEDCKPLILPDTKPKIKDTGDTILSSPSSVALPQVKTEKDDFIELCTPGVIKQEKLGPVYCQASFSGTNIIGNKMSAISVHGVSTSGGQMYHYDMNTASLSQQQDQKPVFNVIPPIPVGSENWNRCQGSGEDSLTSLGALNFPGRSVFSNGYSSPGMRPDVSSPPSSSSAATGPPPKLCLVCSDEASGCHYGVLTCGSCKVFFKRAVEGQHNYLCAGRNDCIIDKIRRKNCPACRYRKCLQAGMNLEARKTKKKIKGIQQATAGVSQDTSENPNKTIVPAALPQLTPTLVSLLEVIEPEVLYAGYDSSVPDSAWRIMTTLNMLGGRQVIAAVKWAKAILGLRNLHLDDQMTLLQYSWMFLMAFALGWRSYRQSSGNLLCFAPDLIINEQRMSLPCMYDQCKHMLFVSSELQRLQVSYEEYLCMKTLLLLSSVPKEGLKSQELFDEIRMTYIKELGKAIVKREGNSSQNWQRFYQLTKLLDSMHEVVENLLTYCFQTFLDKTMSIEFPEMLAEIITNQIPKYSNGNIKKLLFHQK

Rattus norvegicus [2] = assay: Recovery of […] weight in orchidectomized Sprague-Dawley rat at 3 mg/kg, sc relative to control; type: functional; conditions: route subcutaneous
[3] = Displacement of [3H]17-beta-estradiol from rabbit ER by liquid scintillation counting; parameters: species or system Oryctolagus cuniculus
[4] = biological target: T3, Mineralocorticoid receptor (Rattus norvegicus, UniProt P22199); assay: Displacement of [3H]aldosterone from Sprague-Dawley rat MR by liquid scintillation counting
T3 sequence (P22199 whole entry): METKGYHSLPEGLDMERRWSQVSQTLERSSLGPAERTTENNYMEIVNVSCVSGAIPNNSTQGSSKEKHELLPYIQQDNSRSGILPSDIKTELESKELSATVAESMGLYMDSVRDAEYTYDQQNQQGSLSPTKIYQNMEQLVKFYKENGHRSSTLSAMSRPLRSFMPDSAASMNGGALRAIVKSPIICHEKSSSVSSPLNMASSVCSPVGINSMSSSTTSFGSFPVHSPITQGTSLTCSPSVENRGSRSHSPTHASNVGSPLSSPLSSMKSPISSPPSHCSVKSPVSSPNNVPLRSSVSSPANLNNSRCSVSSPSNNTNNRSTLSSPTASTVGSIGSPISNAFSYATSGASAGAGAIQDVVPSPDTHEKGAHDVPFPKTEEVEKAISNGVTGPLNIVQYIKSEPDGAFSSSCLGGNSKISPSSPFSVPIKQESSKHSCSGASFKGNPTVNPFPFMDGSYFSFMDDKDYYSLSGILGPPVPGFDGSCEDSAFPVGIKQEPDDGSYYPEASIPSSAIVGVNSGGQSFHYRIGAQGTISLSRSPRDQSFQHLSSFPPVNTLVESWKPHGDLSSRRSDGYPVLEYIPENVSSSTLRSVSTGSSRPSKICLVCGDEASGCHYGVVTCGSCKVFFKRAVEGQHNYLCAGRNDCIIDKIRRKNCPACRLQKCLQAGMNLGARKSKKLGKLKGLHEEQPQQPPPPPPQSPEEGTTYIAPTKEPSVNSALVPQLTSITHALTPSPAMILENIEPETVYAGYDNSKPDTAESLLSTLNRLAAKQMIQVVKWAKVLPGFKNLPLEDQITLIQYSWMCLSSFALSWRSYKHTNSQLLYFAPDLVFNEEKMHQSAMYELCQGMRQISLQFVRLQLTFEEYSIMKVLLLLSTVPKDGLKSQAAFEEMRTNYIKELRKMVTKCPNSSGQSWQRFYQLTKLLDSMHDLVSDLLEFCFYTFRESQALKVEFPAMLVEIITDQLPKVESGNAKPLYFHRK

CC(C)(CO)[C@H]1Nc2ccc([N+](=O)[O-])cc2[C@H]2C=CC[C@H]21
IC50 (Progesterone receptor): 130 nM
Activity (Rattus norvegicus [1]): Active
IC50 (Glucocorticoid receptor): 18 µM
Activity (Rattus norvegicus [2]): 50%
IC50 [3]: > 1 mM
IC50 [4]: 6.3 µM
